Measurements from PMC11031590, “Narazaciclib, a novel multi-kinase inhibitor with potent activity against CSF1R, FLT3 and CDK6, shows strong anti-AML activity in defined preclinical models” (Scientific Reports, 2024).

What was measured:
Ba/F3-KRAS-G12C = Ba/F3-KRAS-G12C proliferation assay (CTG); type: cell-based; settings: Mus musculus
Experimental: (§1) The recombinant Ba/F3 cell lines overexpressing human CSF1R, or human RBM6-CSF1R, or human ETV6-CSF1R were generated using a retrovirus vector (Kyinno Co., Ltd. Beijing). The recombinant Ba/F3 lines overexpressing human Kras G12C orEGFR-L718Q mutants, and different mutant variants of FLT3 were also similarly created as well. A standard proliferation assay via CTG readout was performed according to the vendor’s instructions (KYinno Biotechnology Co., Ltd. Beijing).

Ba/F3-FLT3-ITD = Ba/F3-FLT3-ITD proliferation assay; type: cell-based, mouse
Experimental: as §1

Ba/F3-FLT3-ITD (D835Y) = Ba/F3-FLT3-ITD (D835Y) proliferation assay; type: cell-based, mouse
Experimental: as §1

Ba/F3-FLT3-ITD (Y842H) = Ba/F3-FLT3-ITD (Y842H) proliferation assay; type: cell-based, mouse
Experimental: as §1

Ba/F3-FLT3-ITD (D835V) = Ba/F3-FLT3-ITD (D835V) proliferation assay; type: cell-based, mouse
Experimental: as §1

Ba/F3-FLT3-F691L = Ba/F3-FLT3-F691L proliferation assay; type: cell-based, mouse
Experimental: as §1

ABL-1 = ABL-1 (Homo sapiens, UniProt P00519); experiment: Additional kinase inhibition panel; type: biochemical
Description: (§2) Supplement 41598_2024_59650_MOESM2_ESM.docx, table 4: Supplemental Table S4. IC50 of Narazaciclib against additional kinases | column: Narazaciclib (µM); Narazaciclib metabolite (µM)

C-Kit = C-Kit (Homo sapiens, UniProt P10721); experiment: Additional kinase inhibition panel; type: biochemical
Chain of C-Kit (P10721 26-976): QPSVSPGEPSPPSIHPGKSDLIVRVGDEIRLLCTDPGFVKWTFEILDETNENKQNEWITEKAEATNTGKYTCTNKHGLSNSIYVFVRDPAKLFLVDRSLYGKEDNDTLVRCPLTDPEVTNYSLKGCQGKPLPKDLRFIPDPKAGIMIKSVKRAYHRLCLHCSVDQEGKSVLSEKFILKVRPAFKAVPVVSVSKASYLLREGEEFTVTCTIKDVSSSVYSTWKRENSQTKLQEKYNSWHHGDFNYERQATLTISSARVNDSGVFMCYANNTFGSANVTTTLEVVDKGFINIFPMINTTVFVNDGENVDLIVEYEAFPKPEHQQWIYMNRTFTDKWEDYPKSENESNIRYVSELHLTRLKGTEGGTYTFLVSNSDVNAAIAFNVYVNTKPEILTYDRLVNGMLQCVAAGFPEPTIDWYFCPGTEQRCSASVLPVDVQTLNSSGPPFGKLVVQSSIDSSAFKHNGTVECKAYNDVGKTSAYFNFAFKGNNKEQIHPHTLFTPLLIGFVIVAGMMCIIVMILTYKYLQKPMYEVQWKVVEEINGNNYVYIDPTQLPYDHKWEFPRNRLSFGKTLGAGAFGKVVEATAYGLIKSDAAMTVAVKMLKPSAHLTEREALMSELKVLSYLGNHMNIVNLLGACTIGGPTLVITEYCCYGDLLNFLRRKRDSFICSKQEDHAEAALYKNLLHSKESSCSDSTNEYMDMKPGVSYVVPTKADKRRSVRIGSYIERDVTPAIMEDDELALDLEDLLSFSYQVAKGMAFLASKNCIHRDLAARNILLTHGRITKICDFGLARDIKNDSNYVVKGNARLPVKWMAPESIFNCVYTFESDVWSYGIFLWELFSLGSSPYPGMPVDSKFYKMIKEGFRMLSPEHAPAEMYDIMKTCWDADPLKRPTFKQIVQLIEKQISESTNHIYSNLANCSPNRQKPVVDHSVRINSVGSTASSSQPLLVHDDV
Description: as §2

CDK9 = CDK9 (Homo sapiens, UniProt P50750); experiment: Additional kinase inhibition panel; type: biochemical
Chain of CDK9 (P50750 whole entry): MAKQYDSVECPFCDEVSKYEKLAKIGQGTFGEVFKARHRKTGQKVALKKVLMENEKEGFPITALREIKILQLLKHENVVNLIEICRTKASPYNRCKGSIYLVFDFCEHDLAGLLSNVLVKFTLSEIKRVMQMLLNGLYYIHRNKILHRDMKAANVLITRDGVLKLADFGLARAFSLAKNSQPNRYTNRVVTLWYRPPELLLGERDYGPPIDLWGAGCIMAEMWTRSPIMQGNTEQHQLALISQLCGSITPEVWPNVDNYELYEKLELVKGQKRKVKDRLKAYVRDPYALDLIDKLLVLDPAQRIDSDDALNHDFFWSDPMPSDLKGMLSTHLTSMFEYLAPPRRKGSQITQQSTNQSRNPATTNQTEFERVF
Chain of CDK9 (O60563 whole entry partner): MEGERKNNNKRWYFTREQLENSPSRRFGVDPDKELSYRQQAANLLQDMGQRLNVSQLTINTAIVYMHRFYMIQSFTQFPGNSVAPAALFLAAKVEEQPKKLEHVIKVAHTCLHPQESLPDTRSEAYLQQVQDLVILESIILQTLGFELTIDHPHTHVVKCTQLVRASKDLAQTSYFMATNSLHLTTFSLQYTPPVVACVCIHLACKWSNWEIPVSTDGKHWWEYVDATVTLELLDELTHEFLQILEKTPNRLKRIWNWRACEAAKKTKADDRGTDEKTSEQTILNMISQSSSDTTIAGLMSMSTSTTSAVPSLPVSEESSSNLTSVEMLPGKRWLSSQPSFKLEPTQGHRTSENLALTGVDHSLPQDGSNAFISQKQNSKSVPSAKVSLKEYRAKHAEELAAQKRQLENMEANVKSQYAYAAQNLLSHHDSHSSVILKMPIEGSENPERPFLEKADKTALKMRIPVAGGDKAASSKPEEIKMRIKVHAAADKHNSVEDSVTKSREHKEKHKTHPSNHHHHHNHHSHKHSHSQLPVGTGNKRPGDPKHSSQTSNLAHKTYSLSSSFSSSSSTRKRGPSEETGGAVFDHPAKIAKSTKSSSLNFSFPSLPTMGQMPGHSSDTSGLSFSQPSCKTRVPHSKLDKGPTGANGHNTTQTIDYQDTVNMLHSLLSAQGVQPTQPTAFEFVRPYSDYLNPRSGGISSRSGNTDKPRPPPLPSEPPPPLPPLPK
Description: as §2

FGFR1 = FGFR1 (Homo sapiens, UniProt P11362); experiment: Additional kinase inhibition panel; type: biochemical
Description: as §2

FGFR2 = FGFR2 (Homo sapiens, UniProt P21802); experiment: Additional kinase inhibition panel; type: biochemical
Description: as §2

FGFR3 = FGFR3 (Homo sapiens, UniProt P22607); experiment: Additional kinase inhibition panel; type: biochemical
Description: as §2

FGFR4 = FGFR4 (Homo sapiens, UniProt P22455); experiment: Additional kinase inhibition panel; type: biochemical
Chain of FGFR4 (P22455 22-802): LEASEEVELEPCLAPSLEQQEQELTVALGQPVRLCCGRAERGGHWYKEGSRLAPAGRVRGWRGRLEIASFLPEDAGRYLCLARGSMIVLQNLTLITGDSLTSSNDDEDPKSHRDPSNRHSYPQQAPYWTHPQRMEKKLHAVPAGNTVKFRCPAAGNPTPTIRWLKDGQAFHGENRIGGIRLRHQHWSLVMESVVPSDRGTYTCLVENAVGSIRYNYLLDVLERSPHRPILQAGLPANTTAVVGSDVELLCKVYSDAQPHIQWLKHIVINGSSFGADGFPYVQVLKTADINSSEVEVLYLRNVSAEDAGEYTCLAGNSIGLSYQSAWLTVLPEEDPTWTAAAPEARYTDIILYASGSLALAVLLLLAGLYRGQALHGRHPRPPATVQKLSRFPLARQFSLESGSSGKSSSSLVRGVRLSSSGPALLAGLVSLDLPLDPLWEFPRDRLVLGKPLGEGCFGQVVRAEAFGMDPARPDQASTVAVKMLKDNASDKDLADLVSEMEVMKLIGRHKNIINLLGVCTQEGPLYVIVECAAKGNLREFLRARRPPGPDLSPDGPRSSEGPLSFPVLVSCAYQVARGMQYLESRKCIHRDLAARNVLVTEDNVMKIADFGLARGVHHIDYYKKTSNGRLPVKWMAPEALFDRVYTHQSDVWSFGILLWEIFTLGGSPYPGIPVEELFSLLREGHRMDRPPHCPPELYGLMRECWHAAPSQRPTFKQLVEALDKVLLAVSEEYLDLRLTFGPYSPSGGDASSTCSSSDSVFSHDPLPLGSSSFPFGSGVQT
Description: as §2

PDGFRα = PDGFRα (Homo sapiens, UniProt P16234); experiment: Additional kinase inhibition panel; type: biochemical
Chain of PDGFRα (P16234 24-1089): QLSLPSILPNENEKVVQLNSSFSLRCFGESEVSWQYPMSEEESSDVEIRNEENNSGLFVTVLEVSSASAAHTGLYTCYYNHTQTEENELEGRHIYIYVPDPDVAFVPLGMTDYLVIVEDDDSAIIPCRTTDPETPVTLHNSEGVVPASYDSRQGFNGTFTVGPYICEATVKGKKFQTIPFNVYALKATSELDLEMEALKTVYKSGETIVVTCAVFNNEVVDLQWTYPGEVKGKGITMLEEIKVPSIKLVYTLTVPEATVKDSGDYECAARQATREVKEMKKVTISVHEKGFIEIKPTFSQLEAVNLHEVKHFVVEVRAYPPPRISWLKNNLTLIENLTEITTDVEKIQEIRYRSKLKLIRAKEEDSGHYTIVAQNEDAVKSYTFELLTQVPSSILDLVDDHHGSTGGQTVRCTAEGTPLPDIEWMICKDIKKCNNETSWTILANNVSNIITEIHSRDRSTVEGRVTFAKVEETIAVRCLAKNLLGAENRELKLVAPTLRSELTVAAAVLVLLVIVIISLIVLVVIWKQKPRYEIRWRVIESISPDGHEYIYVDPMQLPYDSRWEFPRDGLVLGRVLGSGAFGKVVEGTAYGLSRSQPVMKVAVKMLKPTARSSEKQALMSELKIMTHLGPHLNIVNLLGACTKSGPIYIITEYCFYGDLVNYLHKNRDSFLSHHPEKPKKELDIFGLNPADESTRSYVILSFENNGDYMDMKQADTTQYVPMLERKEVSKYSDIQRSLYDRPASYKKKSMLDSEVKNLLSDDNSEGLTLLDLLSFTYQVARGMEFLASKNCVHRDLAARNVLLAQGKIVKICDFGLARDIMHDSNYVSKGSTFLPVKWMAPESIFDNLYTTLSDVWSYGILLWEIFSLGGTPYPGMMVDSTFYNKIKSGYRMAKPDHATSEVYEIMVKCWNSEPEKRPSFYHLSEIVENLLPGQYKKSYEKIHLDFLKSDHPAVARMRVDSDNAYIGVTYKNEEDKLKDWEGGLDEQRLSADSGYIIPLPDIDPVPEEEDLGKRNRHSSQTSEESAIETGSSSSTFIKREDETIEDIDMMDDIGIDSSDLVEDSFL
Description: as §2

PDGFRβ = PDGFRβ (Homo sapiens, UniProt P09619); experiment: Additional kinase inhibition panel; type: biochemical
Description: as §2

RET = RET (Homo sapiens, UniProt P07949); experiment: Additional kinase inhibition panel; type: biochemical
Chain of RET (P07949 29-1114): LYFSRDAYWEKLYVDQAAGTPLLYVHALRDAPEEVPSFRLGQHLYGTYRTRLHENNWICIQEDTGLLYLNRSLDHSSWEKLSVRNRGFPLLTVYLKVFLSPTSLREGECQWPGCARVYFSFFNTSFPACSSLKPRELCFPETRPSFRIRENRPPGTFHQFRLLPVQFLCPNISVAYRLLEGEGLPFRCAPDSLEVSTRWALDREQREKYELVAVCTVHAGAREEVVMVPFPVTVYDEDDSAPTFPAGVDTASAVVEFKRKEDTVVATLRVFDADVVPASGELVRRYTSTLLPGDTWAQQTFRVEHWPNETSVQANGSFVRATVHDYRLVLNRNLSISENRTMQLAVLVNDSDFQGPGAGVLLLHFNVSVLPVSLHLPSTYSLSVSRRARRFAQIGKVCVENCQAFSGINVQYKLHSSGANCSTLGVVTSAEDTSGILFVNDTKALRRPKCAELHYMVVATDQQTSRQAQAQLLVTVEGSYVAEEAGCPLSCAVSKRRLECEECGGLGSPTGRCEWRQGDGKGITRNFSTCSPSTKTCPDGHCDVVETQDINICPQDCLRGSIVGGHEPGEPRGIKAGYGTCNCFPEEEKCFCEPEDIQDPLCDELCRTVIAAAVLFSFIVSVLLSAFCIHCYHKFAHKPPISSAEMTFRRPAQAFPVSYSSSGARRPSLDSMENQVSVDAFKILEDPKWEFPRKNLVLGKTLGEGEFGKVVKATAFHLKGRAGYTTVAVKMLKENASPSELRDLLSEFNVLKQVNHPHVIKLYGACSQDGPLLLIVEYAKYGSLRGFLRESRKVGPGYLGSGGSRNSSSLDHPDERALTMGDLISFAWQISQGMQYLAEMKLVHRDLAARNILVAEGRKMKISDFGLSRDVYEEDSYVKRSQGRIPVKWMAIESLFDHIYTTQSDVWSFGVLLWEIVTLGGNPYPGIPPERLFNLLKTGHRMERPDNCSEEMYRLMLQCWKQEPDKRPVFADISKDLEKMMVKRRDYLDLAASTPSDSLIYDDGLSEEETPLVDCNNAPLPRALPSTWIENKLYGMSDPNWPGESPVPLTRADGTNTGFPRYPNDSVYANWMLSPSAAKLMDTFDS
Description: as §2

SIK1 = SIK1 (Homo sapiens, UniProt P57059); experiment: Additional kinase inhibition panel; type: biochemical
Description: as §2

SIK2 = SIK2 (Homo sapiens, UniProt Q9H0K1); experiment: Additional kinase inhibition panel; type: biochemical
Description: as §2

SIK3 = SIK3 (Homo sapiens, UniProt Q9Y2K2); experiment: Additional kinase inhibition panel; type: biochemical
Description: as §2

AM7577 AML-PDX = experiment: AM7577 systemic AML-PDX model; type: in vivo, NOD/scid mice
Experimental: (§3) For systemic AML-PDX models, the model establishment and narazaciclib pharmacology experiment were performed essentially as described previously. Briefly, 2 × 10^6 AM7407 cells, or 2 × 10^6 AM7577 cells, or 2 × 10^6 AM5512 cells, or 1.65 × 10^6 AM8096 cells were inoculated intravenously into 4- to 5-week-old female NOD/scid mice for AML development. Engraftment was confirmed by the presence of circulating human CD45+ cells (anti-human CD45 antibody, Cat. 304038, Biolegend) in peripheral blood. Mice with successful engraftment of AML-PDX were randomized into different treatment groups (N = 6) and received their designated treatments. Narazaciclib was administrated orally or intraperitoneally at 10 mg/kg, or 30 mg/kg, or 100 mg/kg every day throughout the study, while Cytarabine was administrated intraperitoneally at 3 mg/kg every day. Following the initiation of designated treatments, leukemic burden was monitored by flow cytometry with anti-human CD45 antibody on the peripheral blood every week as well as on the peripheral blood, bone marrow cells and splenocytes of mice at sacrifice. Mice were sacrifice once the followings are observed: body weight loss over 20%, reduced motility and activity, labored breathing, ruffled coat, hunched back and severe dehydration.

AM5512 AML-PDX = experiment: AM5512 systemic AML-PDX model; type: in vivo, NOD/scid mice; settings: AM5512, 100 mg/kg orally every day
Experimental: as §3

[1] = test system: Ba/F3-ETV6-CSF1R xenograft; experiment: Ba/F3-ETV6-CSF1R subcutaneous xenograft model; type: in vivo, NOD/scid mice; settings: either 50 mg/kg or 100 mg/kg
Description: The subcutaneous cell line xenograft (CDX) models and systemic patient-derived xenograft (PDX) models of AML have been extensively described before. For the subcutaneous MV-4-11 CDX model, 5 × 10^6 MV-4-11 tumor cells harvested from exponential growth phase were mixed with Matrigel (1:1) and then inoculated into the right front flank region of 6- to 7-week-old female NOD/scid mice for tumor development. MV-4-11 tumor-bearing mice were randomized into 5 groups (N = 8) when their tumor volume reached approximately 100 mm^3 and received their designated treatments following randomization. Narazaciclib was administrated intraperitoneally at 100 mg/kg twice per week for 3 weeks, while Azacitidine was administrated intraperitoneally at 3 mg/kg twice per week for 3 weeks. For the subcutaneous Ba/F3-ETV6-CSF1R CDX model, 1 × 10^6 Ba/F3-ETV6-CSF1R tumor cells harvested from exponential growth phase were mixed with Matrigel (1:1) and then inoculated into the right front flank region of 6- to 8-week-old female NOD/scid mice for tumor development. Ba/F3-ETV6-CSF1R tumor-bearing mice were randomized into 5 groups (N = 6) when their tumor volume reached approximately 100 mm^3 and received their designated treatments following randomization. […] Tumor volume and body weight were measured at different time points and tumor growth inhibition (TGI) was used as index to determine the therapeutic efficacy.

What does the source list for `CN1CCN(c2ccc(Nc3ncc4cc(C#N)c(=O)n(C5CCCC5)c4n3)cc2)CC1` [Narazaciclib, narazaciclib]?
IC50 (Ba/F3-KRAS-G12C): 490 nM; % of Ba/F3-FLT3 (IC50) (Ba/F3-FLT3-ITD): 31.66%; IC50 (Ba/F3-FLT3-ITD; Mus musculus): 95.3 nM; % of Ba/F3-FLT3 (IC50) (Ba/F3-FLT3-ITD (D835Y)): 20.19%; IC50 (Ba/F3-FLT3-ITD (D835Y); Mus musculus): 60.8 nM; % of Ba/F3-FLT3 (IC50) (Ba/F3-FLT3-ITD (Y842H)): 11.20%; IC50 (Ba/F3-FLT3-ITD (Y842H); Mus musculus): 33.7 nM; % of Ba/F3-FLT3 (IC50) (Ba/F3-FLT3-ITD (D835V)): 9.84%; IC50 (Ba/F3-FLT3-ITD (D835V); Mus musculus): 29.6 nM; % of Ba/F3-FLT3 (IC50) (Ba/F3-FLT3-F691L): 44.19%; IC50 (Ba/F3-FLT3-F691L; Mus musculus): 133 nM; IC50 (ABL-1): 38 nM; IC50 (C-Kit): 9 nM; IC50 (CDK9): 28 nM; IC50 (FGFR1): 38 nM; IC50 (FGFR2): 20 nM; IC50 (FGFR3): 187 nM; IC50 (FGFR4): 2740 nM; IC50 (PDGFRα): 104 nM; IC50 (PDGFRβ): 10 nM; IC50 (RET): 16 nM; IC50 (SIK1): 34 nM; IC50 (SIK2): 2 nM; IC50 (SIK3): 24 nM; leukemic load in peripheral blood (AM7577 AML-PDX; 100 mg/kg orally every day): completely diminished the leukemic load in peripheral blood; leukemic load in peripheral blood, spleen and bone marrow (AM7577 AML-PDX; AM7577): reduce the leukemic load in peripheral blood and spleen, but also the leukemic load in bone marrow; leukemic burdens in spleen and bone marrow (AM7577 AML-PDX; AM7577, 100 mg/kg): significantly reduced the leukemic burdens in both spleen and bone marrow; leukemic burdens, dose dependence (AM7577 AML-PDX; AM7577, different dose levels): reduced the leukemic burdens in a dose-dependent manner; response of model (AM5512 AML-PDX): did not respond; tumor growth [1]: significantly delayed the tumor growth
